Laboratory results taken from US20230263822A1, “MODULATION OF FACTOR 11 EXPRESSION” (Ionis Pharmaceuticals, Inc., priority 2008, published 2023).
Strand notation (5' to 3'): a small letter for the sugar, then the base; units joined by * are phosphorothioate-linked, units joined directly phosphodiester-linked; [ ] holds rarer units or linkages, { } end groups; capitals alone tell only the bases. e = 2'-O-(2-methoxyethyl) (MOE); [5mC] = 5-methylcytosine; d = 2'-deoxy (DNA)

How the values were obtained:
Format in all cases: in vivo
[1] = Tolerability in CD1 mice: liver function (Example 43); parameters: Albumin: unit not given here; details: 50 mg/kg s.c. twice per week for 6 weeks, plasma
[2] = Tolerability in CD1 mice: hematology assays (Example 43); details: 50 mg/kg s.c. twice per week for 6 weeks, blood
[3] = Tolerability in CD1 mice: kidney function (Example 43); details: 50 mg/kg s.c. twice per week for 6 weeks, plasma

Row | Substance | ALT [1] [IU/L] | AST [1] [IU/L] | Albumin [1] | Bilirubin [1] [mg/dL] | Platelets [2] [nL⁻¹] | RBC [2] [pL⁻¹] | WBC [2] [nL⁻¹] | hematocrit [2] [%] | hemoglobin [2] [g/dL] | lymphocytes [2] [%] | monocytes [2] [%] | neutrophils [2] [%] | BUN [3] [mg/dL] | Creatinine [3] [mg/dL]
1 | ISIS 449709: 3-8-3, 4-8-4, 2-10-2, 3-10-3 or 4-10-4 MOE microwalk gapmer (Table 46) (antisense eG*e[5mC]*eA*e[5mC]*dA*dG*dT*dT*dT*d[5mC]*dT*dG*dG*d[5mC]*eA*eG*eG*e[5mC]) | 62 | 83 | 2.8 | 0.18 | 1447 | 9.2 | 5 | 49 | 13.2 | 76 | 4 | 19 | 34 | 0.3
2 | ISIS 449708: 3-8-3, 4-8-4, 2-10-2, 3-10-3 or 4-10-4 MOE microwalk gapmer (Table 46) (antisense eA*e[5mC]*eA*dG*dT*dT*dT*d[5mC]*dT*dG*dG*e[5mC]*eA*eG) | 66 | 103 | 2.8 | 0.17 | 1395 | 9.2 | 7 | 48 | 13.2 | 77 | 5 | 17 | 28 | 0.2
3 | ISIS 449710: 3-8-3, 4-8-4, 2-10-2, 3-10-3 or 4-10-4 MOE microwalk gapmer (Table 46) (antisense e[5mC]*eA*e[5mC]*dA*dG*dT*dT*dT*d[5mC]*dT*dG*dG*d[5mC]*eA*eG*eG) | 43 | 95 | 2.8 | 0.18 | 1245 | 9.1 | 7 | 48 | 13.5 | 81 | 3 | 15 | 29 | 0.2
4 | ISIS 449711: 3-8-3, 4-8-4, 2-10-2, 3-10-3 or 4-10-4 MOE microwalk gapmer (Table 46) (antisense eA*e[5mC]*dA*dG*dT*dT*dT*d[5mC]*dT*dG*dG*d[5mC]*eA*eG) | 52 | 83 | 2.8 | 0.22 | 1225 | 9.0 | 6 | 48 | 13.3 | 79 | 6 | 15 | 26 | 0.2
5 | ISIS 449707: 3-8-3, 4-8-4, 2-10-2, 3-10-3 or 4-10-4 MOE microwalk gapmer (Table 46) (antisense e[5mC]*eA*e[5mC]*eA*dG*dT*dT*dT*d[5mC]*dT*dG*dG*e[5mC]*eA*eG*eG) | 41 | 62 | 2.3 | 0.19 | 1386 | 8.4 | 6 | 45 | 12.4 | 85 | 3 | 11 | 27 | 0.2
